Assay results from patent US20230277669A1, “USES OF UROLITHINS” (Amazentis SA, priority 2022, published 2023).

Tested on: CD3+ cells
Experiment: Western blot, fractionation and immunofluorescence of stimulated CD3+ cells
Assay type: cell-based
Protocol: (FIG. 4A) Scheme of CD3+ T-cell activation and analysis for various timepoints in order to investigate mitophagy induction in vitro. (FIG. 4B) Analysis of mitochondrial membrane potential within CD8+ T cells, with TMRM^lo representing cells with low mitochondrial membrane potential. Analysis was performed six hours after stimulation with aCD/aCD28 stimulation beads at the presence of the indicated treatments. N=4 per group, *p < 0.05 by Mann Whitney U test. One of two independent experiments are shown. (FIG. 4C) Representative flow histogram and quantification of lysosome formation in CD8+ cells six hours after in vitro stimulation. MFI shown relative to DMSO controls, n=4. Data are normalised mean ± SD, statistical analysis by two-sided t-test. One out of two independent experiments are shown. (FIG. 4D) Mitotracker Red staining of in vitro stimulated CD8+ cells after 24 hours of Urolithin A (UA25 n=6; UA50 n=6) or vehicle control treatment (DMSO: n=4). A representative flow histogram depicting identification of Mitotracker^hi cells is shown. Data are mean ± SD, statistical analysis was performed by two-sided t-test (*p < 0.05; ***p <0.001; ****p < 0.0001). Experiment was repeated twice. (FIG. 4E) Subset-specific identification of Mitotracker red accumulation after 24 hours of in vitro stimulation either with vehicle control (DMSO) or 50 µM Urolithin A (n=5). Subsets were identified was depicted in the FIGS. 7-9. Data are mean ± SD, statistical analysis by two-sided t-test (* p<0.05, *** p<0.001 and **** p<0.0001). (FIG. 4F) qPCR analysis of various autophagy/mitophagy associated genes of in vitro activated CD3+ cells, 24 h after activation (n=3). Data are ± SEM, statistical analysis was performed by two-sided t-test (*p < 0.05,**p < 0.01). Overall p value is given for the comparison over the entire panel of genes after two-way ANOVA test. (FIG. 4G) Western blot of Parkin protein expression in UA or DMSO (n=3) treated cells after 24 h. Cells were stimulated at the presence of plate-bound aCD3/aCD28 antibodies. […] (FIG. 4H) CD8+ cells from Pink1^-/- mice display deficient mitophagy upon UA treatment in vitro: Lysosome formation in CD8+ of Pink1^-/- mice as assessed by Lysotracker staining 6h post stimulation at the presence of UA or DMSO (n=4). Data are mean ± SD, one out of two independent experiments are shown. (FIG. 4I) CD8+ cells from Pink1^-/- mice display deficient mitophagy upon UA treatment in vitro: Mitotracker red staining of Pink1^-/- CD8+ stimulated in vitro for 48 h, either in the presence of UA or DMSO (n=4). Percentage of Mitotracker^hi CD8+ cells are shown. Data are mean ± SD and acquired via flow cytometry. […] Quantification of TCF1^hi cells among CD8. (FIG. 4N) Quantification of PD1^hi cells among CD8. (FIG. 4O) Quantification of and Tim3^hi cells among CD8. […]

## O=c1oc2cc(O)ccc2c2ccc(O)cc12 [Urolithin A]
6 h, compared to vehicle controls
  phosphorylation of Stat1: equal phosphorylation of Stat1
24 h
  Parkin protein expression (Western blot): stabilized Parkin protein expression
After 6 hours
  b-catenin phosphorylation: marked decrease
Six hours
  Pgam5 localization (sub-cellular fractionation, immunofluorescence): rapidly released into the cytoplasma
